The results in this text go back to ChEMBL document CHEMBL1149760, “Chemoenzymatic synthesis and antimicrobial activity evaluation of monogalactosyl diglycerides” (2008).

Holding throughout (type): functional
In test [1] the test system is Candida albicans. Description: Antifungal activity against Candida albicans by agar dilution method.
The test system of test [2] is Kluyveromyces marxianus. Description: Antifungal activity against Candida pseudotropicalis by agar dilution method.
For test [3], the system named is Bacillus subtilis. Briefly: Antimicrobial activity against Bacillus subtilis ATCC 6633 by agar dilution method.
The subject of test [4] is Enterococcus faecalis. Briefly: Antimicrobial activity against Enterococcus faecalis ATCC 29212 by agar dilution method.
Test [5] concerns Staphylococcus aureus. Description: Antimicrobial activity against Staphylococcus aureus SA85 by agar dilution method.
The subject of test [6] is Pseudomonas aeruginosa. Briefly: Antimicrobial activity against Pseudomonas aeruginosa ATCC 27753 by agar dilution method.
Test [7] relates to Mycobacterium tuberculosis. Description: Antimicrobial activity against Mycobacterium tuberculosis H160 by agar dilution method.
Test [8] has as its system Staphylococcus aureus. Briefly: Antimicrobial activity against Staphylococcus aureus SA87 by agar dilution method.
The subject of test [9] is Escherichia coli. Description: Antimicrobial activity against Escherichia coli ATCC 25922 by agar dilution method.
The test system of test [10] is Staphylococcus aureus. Description: Antimicrobial activity against Staphylococcus aureus SA52 by agar dilution method.
Test [11] concerns Staphylococcus aureus. Briefly: Antimicrobial activity against Staphylococcus aureus ATCC 105487 by agar dilution method.
Test [12] deals with Staphylococcus aureus. Briefly: Antimicrobial activity against Staphylococcus aureus ATCC 25923 by agar dilution method.
In test [13] the test system is Mycobacterium tuberculosis. Description: Antimicrobial activity against Mycobacterium tuberculosis H190 by agar dilution method.
Test [14] relates to Mycobacterium tuberculosis. Briefly: Antimicrobial activity against Mycobacterium tuberculosis H37Rv by agar dilution method.

SMILES strings stand for the structures.

As for `CCCCC/C=C/C/C=C/CCCCCCCC(=O)OC(COC(=O)CCCCCCCCC)CO[C@@H]1O[C@H](CO)[C@H](O)[C@H](O)[C@H]1O` (mixture of isomers), the MIC in [1] is above 128 µg/mL; in [2] it was above 128 µg/mL; in test [3], 128 µg/mL; in test [4], 128 µg/mL; in test [5], 64 µg/mL; in [6] it was above 128 µg/mL. Further, the MIC is above 128 µg/mL in [7]; 64 µg/mL in [8]; above 128 µg/mL in test [9]; above 128 µg/mL in [10]; 64 µg/mL in [11]; above 128 µg/mL in test [12]. The MIC in test [13] and in test [14] was above 128 µg/mL each time.
For the compound `CCCCC/C=C/C/C=C/CCCCCCCC(=O)OC(COC(=O)CCCCCCC)CO[C@@H]1O[C@H](CO)[C@H](O)[C@H](O)[C@H]1O` (mixture of isomers), the MIC in test [1] was above 128 µg/mL; in test [2], above 128 µg/mL; in test [3] it was 128 µg/mL; in test [4] it was above 128 µg/mL; in test [5], above 128 µg/mL; in test [6], above 128 µg/mL. Further, the MIC was 64 µg/mL in test [7]; 128 µg/mL in test [8]; above 128 µg/mL in [9]; above 128 µg/mL in test [10]; above 128 µg/mL in test [11]; above 128 µg/mL in [12]. Further, the minimal inhibitory concentration (MIC) in [13] stood at 128 µg/mL; in test [14], 64 µg/mL.
Take `CC/C=C/C/C=C/C/C=C/CCCCCCCC(=O)OCC(CO[C@@H]1O[C@H](CO)[C@H](O)[C@H](O)[C@H]1O)OC(=O)CCCCCCC/C=C/C/C=C/C/C=C/CC` (mixture of isomers): the MIC in [1], in [2], in test [3], in test [4], in test [5] and in test [6] was above 128 µg/mL each time. The MIC in test [7] is above 128 µg/mL; in test [8], above 128 µg/mL; in test [9], above 128 µg/mL; in test [10], above 128 µg/mL; in [11], above 128 µg/mL; in test [12], 128 µg/mL. For the same compound, the MIC in test [13] and in [14] was above 128 µg/mL in each case.
Regarding `CCCCCCCC/C=C/CCCCCCCC(=O)OC(COC(=O)CCCCCCCCC)CO[C@@H]1O[C@H](CO)[C@H](O)[C@H](O)[C@H]1O` (mixture of isomers), the MIC in test [1] is above 128 µg/mL; in test [2], above 128 µg/mL; in [3], 32 µg/mL; in test [4] it was above 128 µg/mL; in test [5], 128 µg/mL; in [6], above 128 µg/mL. For the same compound, the MIC in test [7] was above 128 µg/mL; in [8], above 128 µg/mL; in test [9] it was above 128 µg/mL; in [10], above 128 µg/mL; in test [11], above 128 µg/mL; in test [12] it was 128 µg/mL. Further, the MIC in test [13] and in [14] was above 128 µg/mL in each case.
With `CC/C=C/C/C=C/C/C=C/CCCCCCCC(=O)OC(COC(=O)CCCCCCCCC)CO[C@@H]1O[C@H](CO)[C@H](O)[C@H](O)[C@H]1O` (mixture of isomers), the minimal inhibitory concentration (MIC) is above 128 µg/mL in test [1]; above 128 µg/mL in test [2]; above 128 µg/mL in test [3]; above 128 µg/mL in [4]; 64 µg/mL in test [5]; above 128 µg/mL in test [6]. For the same compound, the MIC was above 128 µg/mL in test [7]; 32 µg/mL in [8]; above 128 µg/mL in test [9]; above 128 µg/mL in test [10]; above 128 µg/mL in test [11]; above 128 µg/mL in test [12]. Besides, the MIC in [13] and in test [14] was above 128 µg/mL throughout.
For `CC/C=C/C/C=C/C/C=C/CCCCCCCC(=O)OC(COC(=O)CCCCCCC)CO[C@@H]1O[C@H](CO)[C@H](O)[C@H](O)[C@H]1O` (mixture of isomers), the MIC was above 128 µg/mL in [1]; above 128 µg/mL in test [2]; 128 µg/mL in test [3]; above 128 µg/mL in test [4]; above 128 µg/mL in test [5]; above 128 µg/mL in test [6]. Also, the MIC was 128 µg/mL in test [7]; 64 µg/mL in test [8]; above 128 µg/mL in test [9]; above 128 µg/mL in test [10]; above 128 µg/mL in [11]; above 128 µg/mL in test [12]. The MIC in [13] and in test [14] was 128 µg/mL each time.
Regarding `CCCCCCCC/C=C/CCCCCCCC(=O)OC(COC(=O)CCCCCCC)CO[C@@H]1O[C@H](CO)[C@H](O)[C@H](O)[C@H]1O` (mixture of isomers), the MIC is above 128 µg/mL in test [1]; above 128 µg/mL in test [2]; 128 µg/mL in test [3]; above 128 µg/mL in test [4]; above 128 µg/mL in test [5]; above 128 µg/mL in [6]. Further, the MIC was 64 µg/mL in test [7]; 64 µg/mL in test [8]; above 128 µg/mL in test [9]; above 128 µg/mL in test [10]; above 128 µg/mL in test [11]; above 128 µg/mL in [12]. For the same compound, the MIC came to 64 µg/mL in test [13] and 128 µg/mL in [14].
In the case of `CCCCC/C=C/C/C=C/CCCCCCCC(=O)OCC(CO[C@@H]1O[C@H](CO)[C@H](O)[C@H](O)[C@H]1O)OC(=O)CCCCCCC/C=C/C/C=C/CCCCC` (mixture of isomers), the MIC is above 128 µg/mL in test [1]; above 128 µg/mL in test [2]; 128 µg/mL in [3]; above 128 µg/mL in [4]; above 128 µg/mL in test [5]; above 128 µg/mL in test [6]. The MIC in test [7] is 128 µg/mL; in [8] it was 128 µg/mL; in test [9] it was above 128 µg/mL; in [10], above 128 µg/mL; in test [11] it was above 128 µg/mL; in [12] it was above 128 µg/mL. For the same compound, the MIC in test [13] and in test [14] was 128 µg/mL in each case.
`CCCCCCCC/C=C/CCCCCCCC(=O)OCC(CO[C@@H]1O[C@H](CO)[C@H](O)[C@H](O)[C@H]1O)OC(=O)CCCCCCC/C=C/CCCCCCCC` (mixture of isomers): the MIC in test [1], in test [2], in test [3], in test [4], in [5] and in test [6] was above 128 µg/mL throughout. In addition, the MIC in test [7], in test [8], in test [9], in test [10], in test [11] and in test [12] was above 128 µg/mL throughout. In addition, the MIC in test [13] and in test [14] was above 128 µg/mL throughout.
